Experiment: Solubility of chiral amide in IPA
Format: physicochemical
Details: organic solvent or mixture; in IPA (isopropyl alcohol); grams of chiral amide per liter of solvent; concentration up to 45° C. under vacuum
Description: After the hydrogenation was complete (Example 8), 64.9 g of solution was concentrated to 16.9 g up to 45° C. under vacuum. […] MTBE (348.2 g) was added, and the solution was washed with 250 mL of 10% NH4Cl solution. The organic solution was then washed an additional 3 times with water (248 mL for each wash). The residual organic solution was concentrated with MTBE (284.4 g) to azeotrope the water. The solution was concentrated to 53±5 g/kg. The final water concentration was 532 ppm. This solution was then seeded with chiral amide MTBE hemisolvate, 0.5 wt. %, and aged for 20 hours at 20-25° C. At this point, heptane was charge in three aliquots over specific periods of time. The first aliquot of heptane (54 mL), was charged in 9 hours. The second aliquot of heptane (90 mL) was charged in 6 hours. The third aliquot of heptane (294 mL) was charged in 3 hours. At the conclusion of the heptane charge, the solution was aged at 20-25° C. for 2 hours. The solution was filtered over a 5 micron fritted filter. A displacement wash was conducted using 164 mL of 5:1 n-heptane/MTBE, and the solids were dried at less than 45° C. under vacuum. The final water concentration was <0.5 wt. % (by KF). The final MTBE concentration was 11-12 wt. % (as a hemisolvate) and the final heptane concentration was <0.5 wt. % (both by GC). The chiral amide/MTBE hemisolvate was isolated in 90% yield, 99.3 LCAP.

C[C@H](NC(=O)C(C)(C)Oc1ccc(C(F)(F)F)cn1)[C@@H](Cc1ccc(Cl)cc1)c1cccc(C(N)=O)c1 [chiral amide, 3-{(1S,2S)-1-(4-chlorobenzyl)-2-[(2-methyl-2-{[5-(trifluoromethyl)pyridine-2-yl]oxy}propanoyl)amino]-propyl}benzamide]
solubility: > 1350 mg/mL

— US7629470B2, “Formation of tetra-substituted enamides and stereoselective reduction thereof” (Merck & Co., Inc., priority 2004, dated 2009)
